# Source: ChEMBL document CHEMBL5331042, “Azole inhibitors of mushroom and human tyrosinases: Current advances and prospects of drug development for melanogenic dermatological disorders” (Eur J Med Chem, 2022)
# What was measured:
# [1] = molecular target: Mushroom tyrosinase (Agaricus bisporus) (UniProt O42713+Q00024+C7FF04+C7FF05); experiment: Inhibition of mushroom tyrosinase transfected in mouse B16-F10 cells at 25 uM using L-tyrosine as substrate relative to control; type: cell-based
# [2] = molecular target: T1, Mushroom tyrosinase (Agaricus bisporus, UniProt O42713+Q00024+C7FF04+C7FF05); experiment: Inhibition of mushroom tyrosinase
# [3] = Cytotoxicity against mouse B16-F10 cells assessed as inhibition of cell growth upto 20 uM measured after 24 hrs by absorbance based assay relative to control; type: toxicity
# [4] = molecular target: T1, Mushroom tyrosinase; experiment: Binding affinity to mushroom tyrosinase assessed as inhibition constant using L-DOPA as substrate preincubated for 10 mins followed by substrate addition and measured after 20 mins
# [5] = molecular target: T1, Mushroom tyrosinase; experiment: Inhibition of mushroom tyrosinase using L-DOPA as substrate preincubated for 10 mins followed by substrate addition and measured after 20 mins
# [6] = molecular target: T1, Mushroom tyrosinase; experiment: Inhibition of mushroom tyrosinase using L-DOPA as substrate preincubated for 10 mins followed by substrate addition and measured after 20 mins by absorbance based analysis
# [7] = Cytotoxicity against mouse B16-F10 cells assessed as inhibition of cell growth measured after 48 hrs by MTT assay; type: toxicity, cell-based
# [8] = molecular target: T1, Mushroom tyrosinase; experiment: Binding affinity to mushroom tyrosinase assessed as inhibition constant incubated for 10 mins by spectrophotometric analysis
# [9] = molecular target: T1, Mushroom tyrosinase; experiment: Inhibition of mushroom tyrosinase incubated for 10 mins by spectrophotometric analysis
smiles,measurement,setting,value
O=C1/C(=C/c2ccccc2O)OC(=S)N1c1ccccc1,inhibition,[1],65%
same,IC50,[2],11.18 µM
same,"inhibition at 24 h, up to 20 µM",[3],~65%
COc1ccccc1-n1c(SCC(=O)Nc2ccc(Br)cc2)nnc1-c1ccccc1,Ki,[4],7 nM
same,IC50,[5],4.8 nM
O=C1OC(c2ccccc2Br)=NC(=S)C1c1nn[nH]n1 (stereo not drawn),Ki,[4],0.3 nM
same,IC50,[6],0.037 µM
O=C1/C(=C/c2ccc(O)cc2O)OC(=S)N1c1ccccc1,inhibition,[1],55%
same,IC50,[2],4.7 µM
same,"inhibition at 24 h, up to 20 µM",[3],~55%
O=C1C=C(Cn2cc(COc3ccc4ccccc4c3)nn2)C(=O)C=C1O,IC50 at 48 h,[7],67.5 µM
same,IC50,[6],0.3 µM
CCCCCn1nc(-c2ccccc2)n(CC(=O)NNC(=S)Nc2ccccc2C(F)(F)F)c1=O,Ki,[8],0.122 µM
same,IC50,[9],5.62 µM
CCCCCn1nc(-c2ccccc2)n(CC(=O)NNC(=O)Nc2ccccc2C(F)(F)F)c1=O,Ki,[8],0.012 µM
same,IC50,[9],0.00166 µM
O=C1C=C(Cn2cc(COc3cccc4ccccc34)nn2)C(=O)C=C1O,IC50 at 48 h,[7],65 µM
same,IC50,[6],0.06 µM
